The source of these data is patent US9109004B2, “Progesterone receptor antagonists” (Bayer Intellectual Property GmbH, priority 2010, dated 2015).

Each structure is given as a SMILES string.

Data set [1] addresses T1, human progesterone receptor A (Homo sapiens, UniProt P06401).
T1 construct: expressed in transfected cells; host or cells: SK-N-MC human neuroblastoma cells, stably transfected
T1 sequence (P06401 1-769 isoform P06401-2): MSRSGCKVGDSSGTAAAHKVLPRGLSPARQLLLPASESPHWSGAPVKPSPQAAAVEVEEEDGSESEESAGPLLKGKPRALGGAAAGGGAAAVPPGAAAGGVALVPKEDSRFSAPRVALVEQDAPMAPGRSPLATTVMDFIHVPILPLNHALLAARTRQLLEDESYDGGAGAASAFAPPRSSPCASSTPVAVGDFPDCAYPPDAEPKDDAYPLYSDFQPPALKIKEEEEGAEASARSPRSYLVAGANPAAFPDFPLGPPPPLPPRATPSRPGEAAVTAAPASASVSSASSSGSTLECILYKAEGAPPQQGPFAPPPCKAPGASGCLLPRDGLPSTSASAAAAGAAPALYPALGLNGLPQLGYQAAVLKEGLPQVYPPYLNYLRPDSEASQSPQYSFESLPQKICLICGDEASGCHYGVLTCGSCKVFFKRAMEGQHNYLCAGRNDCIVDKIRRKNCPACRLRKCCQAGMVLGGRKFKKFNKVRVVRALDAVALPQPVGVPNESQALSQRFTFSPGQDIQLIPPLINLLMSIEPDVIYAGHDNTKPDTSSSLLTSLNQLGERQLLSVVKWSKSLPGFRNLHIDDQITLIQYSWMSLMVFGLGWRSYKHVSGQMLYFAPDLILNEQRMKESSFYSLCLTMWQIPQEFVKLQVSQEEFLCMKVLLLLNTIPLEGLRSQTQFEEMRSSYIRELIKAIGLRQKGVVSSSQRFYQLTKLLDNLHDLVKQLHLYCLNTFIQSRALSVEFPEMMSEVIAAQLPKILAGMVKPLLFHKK
Briefly: Progesterone-receptor-antagonistic action in stably transfected SK-N-MC cells, MTV-LUC reporter (PR-A). The data set is classed as cell-based. Particulars: antagonistic potency vs 0.1 nmol/l promegestone, 24 hours, luciferase. The essentials: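 SK-N-MC neuroblastoma cells stably expressing human PR-B or PR-A plus MMTV-LUC reporter, treated 24 h with 0.1 nmol/l promegestone plus test compound at 0.01 nmol/l–1 μmol/l. Luciferase in lysates read as RLU; values as % efficacy and IC50.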

Data set [2] in a line: Clearance and half-life after intravenous application in rats. The data set is classed as in vivo, rat. Conditions: female rats, i.v. bolus 0.3-0.5 mg/kg. The protocol: Determination of Clearance and Half-Life after Intravenous Application in Rats
The in-vivo clearance and half-life of the test substances were determined in female rats with a body weight of approx. 200-250 g. For this, the test substances (in cassette testing, up to 3 different substances per animal) were applied in dissolved form at a dose of 0.3-0.5 mg/kg as a bolus with a volume of 2 ml/kg intravenously (i.v.) in the caudal vein, using compatible solubilizers such as PEG400 and/or ethanol in a compatible amount. Blood samples of approx. 0.2 mL were taken from a polyurethane catheter in the vena jugularis at the time points 2 min, 8 min, 15 min, 30 min, 45 min, 1 h, 2 h, 4 h, 6 h, 8 h, 24 h. The blood samples were kept in lithium-heparin tubes (Monovetten® from Sarstedt) without shaking, and were centrifuged for 15 min at 3000 rpm. A 100 μL aliquot was taken from the supernatant (plasma) and was precipitated by adding 400 μL of cold methanol. The precipitated samples were frozen out overnight at −20° C., then centrifuged once again for 15 min at 3000 rpm before 150 μL of the clear supernatant was taken for the determination of concentration. Analysis was carried out with an Agilent 1200 HPLC system connected to LCMS/MS detection.
Calculation of the pK Parameters (Via Non-Linear Regression by pK Calculation Software): […]

The nature of data set [3]: Metabolic stability in human liver microsomes (HLM). The data set is classed as in vitro ADME. Conditions: from HLM half-life, well-stirred model, phase I reactions; 1 μM test compound. How it is done: Metabolic stability of 4-[(11β,17β)-17-hydroxy-3-oxo-17-(pentafluoro-ethyl)estra-4,9-dien-11-yl]benzamide and 4′-[(11β,17β)-17-hydroxy-3-oxo-17-(pentafluoro-ethyl)estra-4,9-dien-11-yl]biphenyl-4-carboxamide in human liver microsomes (HLM) Isolated human liver microsomes (HLM) were used for assessing the metabolic stability of compounds of general formula I. The incubations were carried out with 2.4 ml HLM solution (0.5 mg/ml protein content), 30 μl of the test compound (final concentration 1 μM) and 0.6 ml of the cofactor mixture (=NADPH-generating system of 3 IU glucose-6-phosphate dehydrogenase, 14.6 mg glucose-6-phosphate, 1.2 mg NADP) at 37° C. in 100 mM phosphate buffer at pH 7.4. Samples are taken at 6 time points (2-60 min), precipitated with an equal volume of methanol, and the recovery of the test substances used in the supernatant is determined by LC-MS/MS analysis. The intrinsic clearance of the substance in the liver microsome assay can be calculated from the value found for the half-life of substance breakdown. Using this, on the basis of various physiological characteristics according to the well-stirred model it is possible to predict a (metabolic) in-vivo clearance with respect to phase I reactions.
For orientation: Liver microsomes are a subcellular fraction often used to study metabolism.

Usually IC50 stands for the concentration needed to halve the response being measured. In data set [1], `C[C@]12C[C@H](c3ccc(-c4ccc(C(N)=O)cc4)cc3)C3=C4CCC(=O)C=C4CC[C@H]3[C@@H]1CC[C@@]2(O)C(F)(F)C(F)(F)F` [Example 79, 4′-[(11β,17β)-17-Hydroxy-3-oxo-17-(pentafluoroethyl)estra-4,9-dien-11-yl]biphenyl-4-carboxamide] gave an IC50 of 10 pM. For the same compound, in data set [2], the CLblood was found to be 6.7 mL/min/kg. For the same compound, in data set [2] (rat, plasma, iv, terminal half-life, read-out: t½ (converted)), the half-life was 9 h. Moreover, the “(metabolic) in-vivo clearance in humans predicted” value in data set [3] was 3.5 mL/min/kg.
